# Results published in US6783541B2, “Methods for inhibiting or suppressing stenosis of arteriovenous access fistulas and grafts” (Miravant Medical Technologies, Inc., priority 2001, dated 2004).
# Columns and labels:
# [1] = tested on: stenosis in a canine model of prosthetic AV access graft; assay: PDT in a canine model of prosthetic AV access graft; type: in vivo, female mongrel dogs
# Experimental: The work described below was undertaken to evaluate the effects of application of an embodiment of the method of the present invention on the suppression of stenosis in a canine model of prosthetic AV access graft.
# Initial studies using light-treatment without MV6401 confirmed no effect on the stenosis. Bilateral femoral PTFE AV access grafts were implanted in four female mongrel dogs. MV6401 (2 mg/kg, IV) was given one hour prior to the operation, and PDT was administered using an endolumenal non-thermal balloon catheter light source immediately after AV access graft placement. The contralateral side received a sham balloon treatment without light activation. The animals were sacrificed four weeks after the treatment, at which time the grafts were harvested, sectioned and examined by histology. Venous anastomotic sites were graded by an individual blinded to the treatment parameters and graded on a categorical scale (0-5) of lesion progression. Thickness of the stenotic lesion was determined using computer morphometry.
# [2] = Preliminary uptake studies by HPLC and fluorescence microscopy
structure (smiles),measurement,setting,value
C=Cc1c(C)c2[n]3c1=CC1=NC(=Cc4c(C)c5c([n]4[In]3[Cl])C(=C3N=C(C=2)[C@@H](C)[C@@H]3CCC(=O)OC)CC5=O)C(CC)=C1C [MV6401],graft fibrosis grade at venous anastomotic site (categorical scale 0-5),"[1]; MV6401 2 mg/kg IV 1 h before operation, endolumenal balloon light, 4 weeks after treatment, sham side without light 2.25±0.08, P=0.02",1.13±0.15
same,thickness of the stenotic lesions at the venous anastomosis,"[1]; MV6401 2 mg/kg IV plus light, 4 weeks after PDT, computer morphometry, sham side without light 1.51±0.11 mm, P=0.006",0.49±0.06 mm
same,long term detrimental effects,[1]; PDT dose sufficient to substantially deplete cell population in vessel wall,no detrimental long term effects noted
same,acellularity in the vessel wall,[1]; PDT dose used (MV6401 2 mg/kg IV plus light),substantial acellularity in the vessel wall
same,AV access graft patency,[1]; four weeks after treatment,patent and fully functioning
same,incorporation of drug into tissue,[2],incorporation into stenotic lesions and surrounding vessel wall
